Source: patent US20080113900A1, “Pharmaceutical compositions and therapeutic applications for the use of a synthetic vitamin B12 derivative, glutathionylcobalamin” (priority 2006, published 2008)
“And” between values parts separate entries of the source, which are not always exact repeats. Equal values may be shown once.

Tests used:
SK-HEP-1 cells = assay: Protection of endothelial cells from homocysteine-induced cell death (MTS assay); assay type: cell-based, human; conditions: for Mean (FIG. 14a, protection of SK-HEP-1 cells from Hcy in the presence of folate): folate 25 μM present, [GSCbl] = 15 μM, [CNCbl] = 15 μM, [MeCbl] = 12.5 μM, [HOCbl] = 17.5 μM, [GSH] = 100 μM; for Absorbance at 490 nm: single replicates Y1-Y6
Procedure: The effect of a constant concentration of NACCbl and GSCbl to protect cells against variable concentrations of homocysteine was assessed. […] Cell viability was determined by MTS® assay. Data shown in FIG. 4 are representative of means ±SE of 6 independent samples. FIG. 4 illustrates that NACCbl (▪) and GSCbl (▴) protect endothelial cells from the effect of homocysteine. […] Cell viability was determined by MTS® assay. […] There was a decrease in protection as homocysteine concentration increased, but there was still ˜60% survival at 50 μM homocysteine.
The data was normalized (log 2 and log 10) as shown in FIGS. 16 and 17 and Tables 16 and 17, respectively, below.

[1] = Decomposition in PBS at 37° C. monitored by UV/Vis spectrophotometry; assay type: physicochemical
Procedure: The decomposition of GSCbl, NACCbl, and HcyCbl in PBS at 37° C. was monitored by UV/Vis spectrophotometry.

Hsp32 = Hsp32 gene expression (RT-PCR, densitometry); assay type: cell-based, human; conditions: SK-HEP-1; Sn (IX) protoporphyrin 25 μM; Quercitin 15 μM
Procedure: (§1) Cells were plated into 6-, 12-, or 24-well cell culture clusters, at 2×10^3, 2×10^5, or 1×10^5 cells per well and incubated until 90% confluent. Treatments were applied as above.
(§2) Following incubation, cells were subjected to mRNA extraction followed by cDNA synthesis for each sample under test. Polymerase chain reaction cDNA templates were prepared for simplex PCR protocol. PCR products were then visualized using a UV Transilluminator and images captured using a Kodak ID gel imaging system. Densitometry and statistical analysis was then performed on each gene expression band image using PSP® v 10.0 running under Windows XP®.
(§3) mRNA extraction was performed using the Quickprep micro mRNA Purification Kit. Following incubation of cells post-treatment, the media was removed from the cells, adherent cells were re-suspended in 0.4 ml extraction buffer and 0.8 ml elution buffer at 65° C. was added.
A reaction mixture was prepared in individual microcentrifuge tubes containing 2 cDNA synthesis beads, 32 μl of the mRNA solution and 1 μl of pd(N)6. This mixture was incubated at 37° C. in a water bath for 60 minutes. After incubation, 27 μl of RNase-free DEPC treated water was added to each tube to make a total volume 60 μl. cDNA samples were prepared in duplicate. Sample 1 was used immediately in RT-PCR protocol. Sample 2 was prepared for qPCR protocol by the addition of 150 μl of 95% ice-cold ethanol and stored at −20° C.
Microcentrifuge tubes from puReTaq™Ready-To-Go™ PCR Beads containing one PCR bead were labeled for each sample required. Added to the PCR bead were 17 μl of RNase-free DEPC treated water, 1 μl sense primer, 1 μl anti-sense primer and 5 μl of the cDNA solution. RT-PCR conditions were as follows: Hsp70 and β-actin, pre-treatment step, 94° C. for 1 minute, followed by denaturing at 92° C. for 1 minute, annealing at 60° C. for 1 minute and extension at 72° C. for 1 minute. Total cycles, 30, post-treatment was then carried out at 72° C. for 10 minutes. For Hsp32, pre-treatment step, 95° C. for 2 minutes, followed by denaturing at 94° C. for 30 seconds, annealing at 58° C. for 1 minute and extension at 72° C. for 1 minute. Total cycles 45, post treatment was then carried out at 72° C. for 10 minutes. Following RT-PCR, samples were stored at −20° C.
Gels were visualised on a UV Transilluminator. Photographs were stored using a Kodak Digital camera system fitted with a UV filter set connected to a PC. Images were then transferred to the Kodak ID gel imaging system. Densitometry was performed on each gene expression band using PSP™ v10 running under Windows XP®.
Experiments were conducted using Hsp32 and Hsp 70 gene expression as the basis for study. […] The densitometric data are presented as means ±SEM of n=3 separate experiments. *p<0.05 or **p<0.01, treatment vs. control.

Hsp70 = Hsp70 gene expression (RT-PCR, densitometry); conditions: SK-HEP-1; Quercitin 15 μM
Procedure: as §1, §2, §3
A reaction mixture was prepared in individual microcentrifuge tubes containing 2 cDNA synthesis beads, 32 μl of the mRNA solution and 1 μl of pd(N)6. This mixture was incubated at 37° C. in a water bath for 60 minutes. After incubation, 27 μl of RNase-free DEPC treated water was added to each tube to make a total volume 60 μl. cDNA samples were prepared in duplicate. Sample 1 was used immediately in RT-PCR protocol.
Microcentrifuge tubes from puReTaq™Ready-To-Go™ PCR Beads containing one PCR bead were labeled for each sample required. Added to the PCR bead were 17 μl of RNase-free DEPC treated water, 1 μl sense primer, 1 μl anti-sense primer and 5 μl of the cDNA solution. RT-PCR conditions were as follows: Hsp70 and β-actin, pre-treatment step, 94° C. for 1 minute, followed by denaturing at 92° C. for 1 minute, annealing at 60° C. for 1 minute and extension at 72° C. for 1 minute. Total cycles, 30, post-treatment was then carried out at 72° C. for 10 minutes. For Hsp32, pre-treatment step, 95° C. for 2 minutes, followed by denaturing at 94° C. for 30 seconds, annealing at 58° C. for 1 minute and extension at 72° C. for 1 minute. […]

[2] = [Hcy] 30 μM, [NACCbl] = 12.5 μM, [NAC] = 45 μM
[3] = Conc. Hcy 0.000, NACCbl 30 μM, NAC 75 μM, n = 6
[4] = Conc. Hcy 1.780, NACCbl 30 μM, NAC 75 μM, n = 6
[5] = Conc. Hcy 3.125, NACCbl 30 μM, NAC 75 μM, n = 6
[6] = Conc. Hcy 6.250, NACCbl 30 μM, NAC 75 μM, n = 6
[7] = Conc. Hcy 12.500, NACCbl 30 μM, NAC 75 μM, n = 6
[8] = Conc. Hcy 25.000, NACCbl 30 μM, NAC 75 μM, n = 6
[9] = Conc. Hcy 50.000, NACCbl 30 μM, NAC 75 μM, n = 6
[10] = Conc. Hcy 100.000, NACCbl 30 μM, NAC 75 μM, n = 6
[11] = Conc. Hcy 200.000, NACCbl 30 μM, NAC 75 μM, n = 6

N[C@@H](CCC(=O)N[C@@H](CS)C(=O)NCC(=O)O)C(=O)O [GSH, γ-L-Glutamyl-L-cysteinyl-glycine, reference compound]
Mean (FIG. 14a, protection of SK-HEP-1 cells from Hcy in the presence of folate) (SK-HEP-1 cells; [2]): 1.409

C/C1=C2/[N-][C@H]([C@H](CC(N)=O)[C@@]2(C)CCC(=O)NC[C@@H](C)OP(=O)([O-])O[C@H]2[C@@H](O)[C@@H](n3cnc4cc(C)c(C)cc43)O[C@@H]2CO)[C@]2(C)N=C(/C(C)=C3N=C(/C=C4N=C1[C@@H](CCC(N)=O)C\4(C)C)[C@@H](CCC(N)=O)[C@]\3(C)CC(N)=O)[C@@H](CCC(N)=O)[C@]2(C)CC(N)=O.[Co+3].[OH-] [HOCbl, Hydroxocobalamin, reference compound]
Mean (FIG. 14a, protection of SK-HEP-1 cells from Hcy in the presence of folate) (SK-HEP-1 cells; [2]): 0.9498

CC1=C2N=C(C=C3N=C(C(C)=C4[N-]C(C(CC(N)=O)C4(C)CCC(=O)NCC(C)OP(=O)([O-])OC4C(CO)OC(n5cnc6cc(C)c(C)cc65)C4O)C4(C)N=C1C(CCC(N)=O)C4(C)CC(N)=O)C(CCC(N)=O)C3(C)C)C(CCC(N)=O)C2(C)CC(N)=O.NC(CC[S-])C(=O)O.[Co+3] [HcyCbl, D,L-homocysteinyl-cobalamin]
Kobs [1]: 0.0018 min⁻¹ | t1/2 [1]: 6.6 h

C/C1=C2/[N-][C@H]([C@H](CC(N)=O)[C@@]2(C)CCC(=O)NC[C@H](C)OP(=O)([O-])O[C@H]2[C@@H](O)[C@@H](n3cnc4cc(C)c(C)cc43)O[C@@H]2CO)[C@]2(C)N=C(/C(C)=C3N=C(/C=C4N=C1[C@@H](CCC(N)=O)C\4(C)C)[C@@H](CCC(N)=O)[C@]\3(C)CC(N)=O)[C@@H](CCC(N)=O)[C@]2(C)CC(N)=O.[CH3-].[Co+3] [MeCbl, Methylcobalamin, reference compound]
Mean (FIG. 14a, protection of SK-HEP-1 cells from Hcy in the presence of folate) (SK-HEP-1 cells; [2]): 1.322

CC(=O)N[C@@H](CS)C(=O)O [NAC, N-Acetyl-L-Cysteine, reference compound]
Normalized Data Log 2, Mean (SK-HEP-1 cells; [3]): 84.288 | Normalized Data Log 10, Mean (SK-HEP-1 cells; [3]): 100.000 | Normalized Data Log 2, Mean (SK-HEP-1 cells; [4]): 69.880 | Normalized Data Log 10, Mean (SK-HEP-1 cells; [4]): 83.752 | Normalized Data Log 2, Mean (SK-HEP-1 cells; [5]): 60.687 | Normalized Data Log 10, Mean (SK-HEP-1 cells; [5]): 73.385 | Normalized Data Log 2, Mean (SK-HEP-1 cells; [6]): 58.837 | Normalized Data Log 10, Mean (SK-HEP-1 cells; [6]): 71.298 | Normalized Data Log 2, Mean (SK-HEP-1 cells; [7]): 45.397 | Normalized Data Log 10, Mean (SK-HEP-1 cells; [7]): 56.141 | Normalized Data Log 2, Mean (SK-HEP-1 cells; [8]): 41.900 | Normalized Data Log 10, Mean (SK-HEP-1 cells; [8]): 52.198 | Normalized Data Log 2, Mean (SK-HEP-1 cells; [9]): 24.035 | Normalized Data Log 10, Mean (SK-HEP-1 cells; [9]): 32.051 | Normalized Data Log 2, Mean (SK-HEP-1 cells; [10]): 13.738 | Normalized Data Log 10, Mean (SK-HEP-1 cells; [10]): 20.439 | Normalized Data Log 2, Mean (SK-HEP-1 cells; [11]): 11.135 | Normalized Data Log 10, Mean (SK-HEP-1 cells; [11]): 17.503 | Absorbance at 490 nm (SK-HEP-1 cells; Conc. of Hcy 0.000, NACCbl 30 μM, NAC 75 μM): 2.592 and 2.476 and 2.437 and 2.678 and 2.336 and 2.447 | Absorbance at 490 nm (SK-HEP-1 cells; Conc. of Hcy 1.780, NACCbl 30 μM, NAC 75 μM): 2.225 and 1.903 and 1.947 and 2.310 and 2.187 and 2.206 | Absorbance at 490 nm (SK-HEP-1 cells; Conc. of Hcy 3.725, NAC 75 μM): 1.890 and 2.003 and 1.784 and 1.946 and 1.958 and 1.801 | Absorbance at 490 nm (SK-HEP-1 cells; Conc. of Hcy 6.250, NACCbl 30 μM, NAC 75 μM): 1.678 and 1.789 and 1.897 and 1.899 and 1.933 and 1.905 | Absorbance at 490 nm (SK-HEP-1 cells; Conc. of Hcy 12.500, NACCbl 30 μM, NAC 75 μM): 1.675 and 1.232 and 1.339 and 1.590 and 1.602 and 1.622 | Absorbance at 490 nm (SK-HEP-1 cells; Conc. of Hcy 25.000, NACCbl 30 μM, NAC 75 μM): 1.345 and 1.501 and 1.632 and 1.378 and 1.226 and 1.447 | Absorbance at 490 nm (SK-HEP-1 cells; Conc. of Hcy 50.000, NACCbl 30 μM, NAC 75 μM): 0.890 and 0.821 and 1.034 and 1.227 and 0.799 and 1.045 | Absorbance at 490 nm (SK-HEP-1 cells; Conc. of Hcy 100.000, NACCbl 30 μM, NAC 75 μM): 0.789 and 0.842 and 0.743 and 0.589 and 0.490 and 0.799 | Absorbance at 490 nm (SK-HEP-1 cells; Conc. of Hcy 200.000, NACCbl 30 μM, NAC 75 μM): 0.567 and 0.668 and 0.623 and 0.490 and 0.721 and 0.788 | Absorbance at 490 nm, Mean (SK-HEP-1 cells; SK-HEP-1, NACCbl 30 μM, NAC 75 μM, Hcy conc. 200.000, n = 6, label Hcy = Hcy alone): 0.643 | Mean (FIG. 14, protection of SK-HEP-1 cells from Hcy) (SK-HEP-1 cells; [Hcy] 30 μM, [NAC] = 45 μM, [NACCbl] = 12.5 μM, [Folate] = 25 μM where named in the label, label Hcy/HCy = Hcy alone): 1.296 | Mean (FIG. 14a, protection of SK-HEP-1 cells from Hcy in the presence of folate) (SK-HEP-1 cells; [2]): 1.438 | Absorbance at 490 nm, Mean (SK-HEP-1 cells; as E80, Hcy conc. 0.000): 2.494 | Absorbance at 490 nm, Mean (SK-HEP-1 cells; as E80, Hcy conc. 1.780): 2.130 | Absorbance at 490 nm, Mean (SK-HEP-1 cells; as E80, Hcy conc. 3.125): 1.897 | Absorbance at 490 nm, Mean (SK-HEP-1 cells; as E80, Hcy conc. 6.250): 1.850 | Absorbance at 490 nm, Mean (SK-HEP-1 cells; as E80, Hcy conc. 12.500): 1.510 | Absorbance at 490 nm, Mean (SK-HEP-1 cells; as E80, Hcy conc. 25.000): 1.421 | Absorbance at 490 nm, Mean (SK-HEP-1 cells; as E80, Hcy conc. 50.000): 0.969 | Absorbance at 490 nm, Mean (SK-HEP-1 cells; as E80, Hcy conc. 100.000): 0.709

O.O.O=c1c(O)c(-c2ccc(O)c(O)c2)oc2cc(O)cc(O)c12 [Quercitin, 2-(3,4-Dihydroxyphenyl)-3,5,7-trihydroxy-4H-1-benzopyran-4-one dihydrate]
Hsp32 gene expression (Hsp32): does not inhibit | Hsp70 gene expression (Hsp70): inhibits

C=CC1=C(C)c2cc3[n-]c(cc4[n-]c(cc5nc(cc1n2)C(C)=C5C=C)c(C)c4CCC(=O)O)c(CCC(=O)O)c3C.[Cl-].[Cl-].[Sn+4] [Sn(IX) protoporphyrin, 8,13-Bis(vinyl)-3,7,12,17-tetramethyl-21H, 23H-porphine-2,18dipropionic acid tin(IV) dichloride]
Hsp32 gene expression (Hsp32): inhibited
